Source: ChEMBL document CHEMBL1250537, “Synthesis and biological evaluation of diastereoisomerically pure N,O-nucleosides” (Bioorg Med Chem, 2010)

Experiments:
Format in all cases: functional, cell-based
[1] = Cytotoxicity against human LCL cells after 72 hrs by MTT assay
[2] = tested on: JIYOYE; experiment: Cytotoxicity against human EBV-positive Jijoye cells after 72 hrs by MTT assay
[3] = tested on: Jurkat; experiment: Cytotoxicity against human Jurkat cells after 72 hrs by MTT assay

SMILES | IC50 [1] [µM] | IC50 [2] [µM] | IC50 [3] [µM]
Cc1cn([C@@H]2C[C@H](c3ccco3)N(C(C)(C)C)O2)c(=O)[nH]c1=O (relative stereo) | > 100 | > 100 | > 100
Cc1cn([C@@H]2C[C@H](c3ccccc3)N(C(C)(C)C)O2)c(=O)[nH]c1=O (relative stereo) | 87.1 | 68.8 | 72.2
CN1O[C@@H](n2ccc(N)nc2=O)C[C@H]1c1ccccc1 (relative stereo) | > 100 | > 100 | > 100
Cc1cn([C@@H]2C[C@H](c3ccccc3)N(Cc3ccccc3)O2)c(=O)[nH]c1=O (relative stereo) | 55.2 | 36.9 | 19.3
Cc1cn([C@@H]2C[C@H](c3ccccc3)N(C)O2)c(=O)[nH]c1=O (relative stereo) | 82.5 | 60.9 | 76.6
CN1O[C@@H](n2ccc(N)nc2=O)C[C@@H]1c1ccccc1 (relative stereo) | > 100 | > 100 | > 100
CC(C)(C)N1O[C@H](n2cc(F)c(=O)[nH]c2=O)C[C@@H]1c1ccccc1 (relative stereo) | 67.5 | 63.1 | 60.6
Cc1cn([C@@H]2C[C@H](c3ccccc3Cl)N(C)O2)c(=O)[nH]c1=O (relative stereo) | 52.6 | 28.5 | 8.8
